Patent EP4501917A1, “3,4-DIHYDROQUINOXALINE-2-CARBOXIMIDE DERIVATIVE COMPOUND AND PHARMACEUTICAL COMPOSITION COMPRISING SAME FOR PREVENTING OR TREATING CANCER DISEASE” (Daegu-Gyeongbuk Medical Innovation Foundation, priority 2022, dated 2023)

Target: T1, HDAC7 (Homo sapiens, UniProt Q8WUI4)
T1 construct: purchased BPS bioscience
T1 sequence (Q8WUI4 1-952): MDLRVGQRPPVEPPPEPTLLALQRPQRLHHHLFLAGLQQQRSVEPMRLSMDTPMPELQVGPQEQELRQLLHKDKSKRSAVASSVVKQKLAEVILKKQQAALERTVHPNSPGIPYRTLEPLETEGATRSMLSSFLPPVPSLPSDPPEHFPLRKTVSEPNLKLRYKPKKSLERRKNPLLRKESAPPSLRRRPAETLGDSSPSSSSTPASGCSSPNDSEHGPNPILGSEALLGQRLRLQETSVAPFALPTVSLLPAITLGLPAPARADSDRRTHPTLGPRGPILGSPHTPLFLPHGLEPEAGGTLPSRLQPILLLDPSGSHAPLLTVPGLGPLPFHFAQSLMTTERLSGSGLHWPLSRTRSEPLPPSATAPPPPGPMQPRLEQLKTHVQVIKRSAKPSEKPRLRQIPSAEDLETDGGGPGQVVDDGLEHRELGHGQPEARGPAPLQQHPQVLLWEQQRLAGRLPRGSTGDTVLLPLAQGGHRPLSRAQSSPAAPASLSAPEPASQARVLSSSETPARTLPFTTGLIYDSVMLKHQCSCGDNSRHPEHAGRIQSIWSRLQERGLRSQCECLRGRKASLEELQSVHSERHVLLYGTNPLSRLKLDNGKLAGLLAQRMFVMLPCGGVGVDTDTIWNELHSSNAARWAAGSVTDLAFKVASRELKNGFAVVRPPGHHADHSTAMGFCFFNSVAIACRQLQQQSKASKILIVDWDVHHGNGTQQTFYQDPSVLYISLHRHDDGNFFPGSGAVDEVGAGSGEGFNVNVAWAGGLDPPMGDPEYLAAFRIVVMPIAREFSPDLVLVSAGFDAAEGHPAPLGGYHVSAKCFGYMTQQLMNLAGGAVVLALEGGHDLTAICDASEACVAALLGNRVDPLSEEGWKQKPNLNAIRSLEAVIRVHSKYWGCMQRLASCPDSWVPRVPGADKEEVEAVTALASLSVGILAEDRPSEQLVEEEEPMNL
Assay: Selective HDAC inhibition, HDAC Fluorogenic assay kit
Type: biochemical
Settings: final concentration 10 µM; HDAC substrate 2A 200 µM; positive control (1% DMSO) set to 100; read-out: HDAC7 enzyme activity (%)
Experimental: For analysis, HDAC substrate 3 was diluted in buffer to a concentration of 200 µM and used in HDAC 1, 2, 3, 6, and 10 assays, HDAC substrate 2A was diluted in buffer to a concentration of 200 µM and used in HDAC 4, 7, 9, and 11 assays, HDAC substrate 2A was diluted in buffer to a concentration of 20 µM and used in HDAC 8 assays. For the HDAC 11 assay, a dedicated buffer included in the kit was used separately, and the same buffer was used for the remaining assays. The compound of the Example was diluted to 1 mM (1% DMSO concentration) using DMSO to obtain a final concentration of 10 µM, and prepared by diluting 1/10 with assay buffer. In a 96-well black round-bottom plate, 5 µL of the diluted compound of the Example, 5 µL of the diluted HDAC substrate, 5 µL of BSA (1 mg/ml), 5 µL of the HDAC enzyme diluted to the appropriate concentration, and 30 µL of assay buffer were added, and the enzyme reaction was performed at 37°C for 30 minutes. […] Afterwards, 50 µL of 2X HDAC developer was added to each well. After reacting for 15 minutes at room temperature, the fluorescence values at excitation wavelengths of 350-380 nm and emission wavelengths of 440-460 nm were measured using a microplate reader (Synergy Neo).

For `Cc1cc2nc(C(=O)NCCc3c[nH]c4ccc(O)cc34)c(=O)n(C[C@H](O)[C@H](O)[C@H](O)CO)c2cc1C` [Example 27, N-(2-(5-hydroxy-1H-indol-3-yl)ethyl)-6,7-dimethyl-3-oxo-4-((2S,3S,4R)-2,3,4,5-tetrahydroxypentyl)-3,4-dihydroquinoxaline-2-carboxamide], the remaining activity at 10 µM was 91.2%.
